Measured values reported in ChEMBL document CHEMBL5137054, “Xyloketal B Reverses Nutritional Hepatic Steatosis, Steatohepatitis, and Liver Fibrosis through Activation of the PPARα/PGC1α Signaling Pathway” (J Nat Prod, 2022).
The source made the active and inactive calls. No cut-off for these calls is given here.

Legend:
[1] = system: Mus musculus; assay: Reduction in hepatic steatosis in HFD-induced C57BL/6J mouse model of NAFL assessed as increase in serum ApoE level at 20 to 40 mg/kg/day, ip administered from week 7 to week 12; type: functional, organism-based; conditions: dose 20-40 mg/kg/day, time 6.0 weeks
[2] = system: Mus musculus; assay: Upregulation of peroxisomal acyl-coenzyme A oxidase-1 enzyme expression in liver of HFD-induced C57BL/6J mouse model of NAFL administered intraperitoneally from week 7 to week 12 by immunoblotting analysis; type: functional; conditions: dose 20-40 mg/kg/day, route ip, time 6.0 weeks, DDE = dose-dependent effect
[3] = system: Mus musculus; assay: Upregulation of Cpt1a gene transcriptional level in HFD-induced C57BL/6J mouse model of NAFL at 20 to 40 mg/kg/day, ip administered from week 7 to week 12 by qRT-PCR analysis; type: functional, organism-based; conditions: dose 20-40 mg/kg/day, time 6.0 weeks
[4] = system: Mus musculus; assay: Anti-inflammatory activity against MCD-induced C57BL/6J mouse model of nonalcoholic steatohepatitis assessed as attenuation of VCAM1 expression in liver at 20 to 40 mg/kg/day, ip administered from week 3 to week 4 by immunoblotting analysis; type: functional, organism-based; conditions: dose 20-40 mg/kg/day, time 2.0 weeks
[5] = system: Mus musculus; assay: Upregulation of ACAA1 enzyme expression in liver of HFD-induced C57BL/6J mouse model of NAFL at 15 mg/kg/day, ip administered from week 7 to week 12 by immunoblotting analysis; type: functional, organism-based; conditions: time 6.0 weeks
[6] = system: Mus musculus; assay: Anti-inflammatory activity against MCD-induced C57BL/6J mouse model of nonalcoholic steatohepatitis assessed as downregulation of TNFalpha expression in liver at 20 to 40 mg/kg/day, ip administered from week 3 to week 4 by immunoblotting analysis; type: functional, organism-based; conditions: dose 20-40 mg/kg/day, time 2.0 weeks
[7] = system: Mus musculus; assay: Antifibrotic activity against MCD-induced C57BL/6J mouse model of liver fibrosis assessed as reduction in collagen I level in liver at 20 to 40 mg/kg, ip administered from week 3 to week 6 by sirius red staining based light microscopic analysis; type: functional, organism-based; conditions: dose 20-40 mg/kg, time 4.0 weeks
[8] = Toxicity in C57BL/6J mouse assessed as effect on serum cholesterol level at 40 mg/kg, ip; type: organism-based; conditions: in vivo
[9] = system: Mus musculus; assay: Upregulation of peroxisomal bifunctional enzyme expression in liver of HFD-induced C57BL/6J mouse model of NAFL at 15 mg/kg/day, ip administered from week 7 to week 12 by immunoblotting analysis; type: functional, organism-based; conditions: time 6.0 weeks
[10] = system: Mus musculus; assay: Reduction in hepatic steatosis in HFD-induced C57BL/6J mouse model of NAFL assessed as reduction in serum ALT level at 20 to 40 mg/kg/day, ip administered from week 7 to week 12; type: functional, organism-based; conditions: dose 20-40 mg/kg/day, time 6.0 weeks
[11] = Toxicity in C57BL/6J mouse assessed as effect on serum ApoE level at 40 mg/kg, ip; type: organism-based; conditions: in vivo
[12] = Toxicity in C57BL/6J mouse assessed as effect on serum LDL level at 40 mg/kg, ip; type: organism-based; conditions: in vivo
[13] = system: Mus musculus; assay: Anti-inflammatory activity against MCD-induced C57BL/6J mouse model of nonalcoholic steatohepatitis assessed as downregulation of COX-2 expression in liver at 20 to 40 mg/kg/day, ip administered from week 3 to week 4 by immunoblotting analysis; type: functional, organism-based; conditions: dose 20-40 mg/kg/day, time 2.0 weeks
[14] = system: Mus musculus; assay: Upregulation of peroxisomal acyl-coenzyme A oxidase-2 enzyme expression in liver of HFD-induced C57BL/6J mouse model of NAFL administered intraperitoneally from week 7 to week 12 by immunoblotting analysis; type: functional; conditions: dose 20-40 mg/kg/day, route ip, time 6.0 weeks, DDE = dose-dependent effect
[15] = system: Mus musculus; assay: Antifibrotic activity against MCD-induced C57BL/6J mouse model of liver fibrosis assessed as reduction in MMP3 level in liver administered intraperitoneally from week 3 to week 6 by immunoblotting analysis; type: functional, organism-based; conditions: dose 20-40 mg/kg, route ip, time 4.0 weeks, DDE = dose-dependent effect
[16] = Toxicity in C57BL/6J mouse assessed as effect on serum AST/ALT ratio at 40 mg/kg, ip; type: organism-based; conditions: in vivo
[17] = system: Mus musculus; assay: Upregulation of ACAA1 enzyme expression in liver of HFD-induced C57BL/6J mouse model of NAFL administered intraperitoneally from week 7 to week 12 by immunoblotting analysis; type: functional; conditions: dose 20-40 mg/kg/day, route ip, time 6.0 weeks, DDE = dose-dependent effect
[18] = system: Mus musculus; assay: Reduction in hepatic steatosis in HFD-induced C57BL/6J mouse model of NAFL assessed as reduction in serum AST level at 20 to 40 mg/kg/day, ip administered from week 7 to week 12; type: functional, organism-based; conditions: dose 20-40 mg/kg/day, time 6.0 weeks
[19] = Toxicity in C57BL/6J mouse assessed as effect on serum ALT level at 40 mg/kg, ip; type: organism-based; conditions: in vivo
[20] = system: Mus musculus; assay: Upregulation of carnitine O-palmitoyltransferase-1B enzyme expression in liver of HFD-induced C57BL/6J mouse model of NAFL at 15 mg/kg/day, ip administered from week 7 to week 12 by immunoblotting analysis; type: functional, organism-based; conditions: time 6.0 weeks
[21] = system: Mus musculus; assay: Upregulation of cytochrome P450-4A10 enzyme expression in liver of HFD-induced C57BL/6J mouse model of NAFL administered intraperitoneally from week 7 to week 12 by immunoblotting analysis; type: functional; conditions: dose 20-40 mg/kg/day, route ip, time 6.0 weeks, DDE = dose-dependent effect
[22] = system: Mus musculus; assay: Reduction in hepatic steatosis in HFD-induced C57BL/6J mouse model of NAFL assessed as reduction in HFD-induced body weight gain at 20 to 40 mg/kg/day, ip administered from week 7 to week 12; type: functional, organism-based; conditions: dose 20-40 mg/kg/day, time 6.0 weeks
[23] = system: Mus musculus; assay: Upregulation of cytochrome P450-4A10 enzyme expression in liver of HFD-induced C57BL/6J mouse model of NAFL at 15 mg/kg/day, ip administered from week 7 to week 12 by immunoblotting analysis; type: functional, organism-based; conditions: time 6.0 weeks
[24] = system: Mus musculus; assay: Upregulation of Cpt1c gene transcriptional level in HFD-induced C57BL/6J mouse model of NAFL at 20 to 40 mg/kg/day, ip administered from week 7 to week 12 by qRT-PCR analysis; type: functional, organism-based; conditions: dose 20-40 mg/kg/day, time 6.0 weeks
[25] = system: Mus musculus; assay: Upregulation of Cyp4a10 gene transcriptional level in HFD-induced C57BL/6J mouse model of NAFL at 20 to 40 mg/kg/day, ip administered from week 7 to week 12 by qRT-PCR analysis; type: functional, organism-based; conditions: dose 20-40 mg/kg/day, time 6.0 weeks
[26] = system: Mus musculus; assay: Upregulation of Acox1 gene transcriptional level in HFD-induced C57BL/6J mouse model of NAFL at 20 to 40 mg/kg/day, ip administered from week 7 to week 12 by qRT-PCR analysis; type: functional, organism-based; conditions: dose 20-40 mg/kg/day, time 6.0 weeks
[27] = system: Mus musculus; assay: Upregulation of Medium-chain specific acyl-CoA dehydrogenase gene transcriptional level in HFD-induced C57BL/6J mouse model of NAFL at 20 to 40 mg/kg/day, ip administered from week 7 to week 12 by qRT-PCR analysis; type: functional, organism-based; conditions: dose 20-40 mg/kg/day, time 6.0 weeks
[28] = system: Mus musculus; assay: Anti-inflammatory activity against MCD-induced C57BL/6J mouse model of nonalcoholic steatohepatitis assessed as attenuation of ICAM1 expression in liver at 20 to 40 mg/kg/day, ip administered from week 3 to week 4 by immunoblotting analysis; type: functional, organism-based; conditions: dose 20-40 mg/kg/day, time 2.0 weeks
[29] = system: Mus musculus; assay: Upregulation of carnitine O-palmitoyltransferase-1B enzyme expression in liver of HFD-induced C57BL/6J mouse model of NAFL administered intraperitoneally from week 7 to week 12 by immunoblotting analysis; type: functional; conditions: dose 20-40 mg/kg/day, route ip, time 6.0 weeks, DDE = dose-dependent effect
[30] = system: Mus musculus; assay: Antifibrotic activity against MCD-induced C57BL/6J mouse model of liver fibrosis assessed as reduction in alphaSMA level in liver at 20 to 40 mg/kg, ip administered from week 3 to week 6 by […]; type: functional, organism-based; conditions: dose 20-40 mg/kg, time 4.0 weeks

Activity [2]: Dde
Activity [14]: Dde
Activity [17]: Dde
Activity [21]: Dde
Activity [29]: Dde
SMILES: C[C@H]1CO[C@]2(C)Oc3cc(O)c4c(c3C[C@H]12)O[C@@]1(C)OC[C@H](C)[C@H]1C4
Activity [1]: Active
Activity [3]: Active
Activity [4]: Active
Activity [5]: Active
Activity [6]: Active
Activity [7]: Active
Activity [8]: Non-Toxic
Activity [9]: Active
Activity [10]: Active
Activity [11]: Non-Toxic
Activity [12]: Non-Toxic
Activity [13]: Active
Activity [15]: Dde
Activity [16]: Non-Toxic
Activity [18]: Active
Activity [19]: Non-Toxic
Activity [20]: Active
Activity [22]: Active
Activity [23]: Active
Activity [24]: Active
Activity [25]: Active
Activity [26]: Active
Activity [27]: Active
Activity [28]: Active
Activity [30]: Active
